Experimental data as given in US20210330611A1, “THERAPY FOR NEUROLOGICAL DISEASES/DISORDERS” (priority 2020, published 2021).
Where a name gives a salt, the structure may show the parent alone. Read-outs that look alike come from different tables or passages of the source.

Key:
[1] = tested on: LPS-induced microglia activation; experiment: Image-based assay of LPS-induced microglia activation (HTS and dose response); assay type: cell-based, rat; details: for inhibition at 10 µM: Rattus norvegicus, Microglia, read-out: LPS % inhibition
[2] = tested on: fibrin- and LPS-induced microglia activation; experiment: cells; assay type: cell-based, rat
[3] = tested on: fibrin-induced microglia activation; experiment: Image-based assay of fibrin-induced microglia activation (HTS and dose response); assay type: cell-based, rat; details: for inhibition at 10 µM: Rattus norvegicus, Microglia, read-out: Fibrin % inhibition
primary rat microglia [4] = experiment: Cell toxicity (dead cells, size <150 μm2) in LPS assay
primary rat microglia [5] = experiment: Cell toxicity (dead cells, size <150 μm2) in coated fibrin (cFib) assay;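 note: share of dead cells sized under 150 µm2 at 10 µM in fibrin-stimulated microglia HTS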
[6] = primary HTS, 10 μM, LPS-stimulated primary microglia
[7] = primary HTS, 10 μM, fibrin-stimulated primary microglia
[8] = primary HTS, 10 μM, LPS assay, dead cells size <150 μm2
[9] = primary HTS, 10 μM, fibrin assay, dead cells size <150 μm2

| Structure (SMILES) | inhibition at 10 µM [1, 6] [%] | Quadrant (FIG. 5b) ([2]; primary HTS, 10 μM) | inhibition at 10 µM [3, 7] [%] | LPS % cell toxicity (primary rat microglia [4]; [8]) [%] | Fibrin % cell toxicity (primary rat microglia [5]; [9]) [%] | inhibition at 10 µM ([1]; 48 h, primary microglia HTS, LPS stimulation, increased cell size (>800 μm^2) as marker of activation) [%] | Quadrant (FIG. 5b) ([2]; quadrant by fibrin and LPS inhibition in HTS of 1907 compounds) | inhibition at 10 µM ([3]; primary microglia HTS, fibrin stimulation, increased cell size (>800 μm^2) as marker of activation) [%] | LPS % cell toxicity (primary rat microglia [4]; primary microglia HTS, LPS stimulation, decreased size (<150 μm^2) as marker of toxicity) [%] | Fibrin % cell toxicity (primary rat microglia [5]; primary microglia HTS, fibrin stimulation, decreased size (<150 μm^2) as marker of toxicity) [%] | LPS % inhibition [1, 6] [%] | Fibrin % inhibition [3, 7] [%] |
| --- | --- | --- | --- | --- | --- | --- | --- | --- | --- | --- | --- | --- |
| Nc1c(CC(=O)O)cccc1C(=O)c1ccc(Br)cc1 [Bromfenac] | 0 | Q4 | -12 | 0 | 1 |  |  |  |  |  |  |  |
| CN(Cc1cc(Br)cc(Br)c1N)C1CCCCC1 [Bromhexine] | 11 | Q4 | -16 | 0 | 0 |  |  |  |  |  |  |  |
| O=C1c2ccccc2C(=O)C1c1ccc(Br)cc1 [Bromindione] | 27 | Q4 | 17 | 0 | 1 |  |  |  |  |  |  |  |
| CC(C)C[C@H]1C(=O)N2CCC[C@H]2[C@]2(O)O[C@](NC(=O)[C@@H]3C=C4c5cccc6[nH]c(Br)c(c56)C[C@H]4N(C)C3)(C(C)C)C(=O)N12 [Bromocriptine Mesylate] | 24 | Q4 | 26 | 0 | 1 |  |  |  |  |  |  |  |
| CN(C)CCC(c1ccc(Br)cc1)c1ccccn1 (centres unmarked) [Brompheniramine] | -7 | Q4 | -20 | −1 | 1 |  |  |  |  |  |  |  |
| O=[N+]([O-])C(Br)(CO)CO [Bronopol] |  |  |  |  |  | 119 | Q1 | 43 | 61 | 2 |  |  |
| Cc1ccc2c(Br)cc(Br)c(OC(=O)c3ccccc3)c2n1 [Broxaldine] | 6 | Q4 | 19 | 0 | 1 |  |  |  |  |  |  |  |
| Oc1c(Br)cc(Br)c2cccnc12 [Broxyquinoline] | 8 | Q4 | -25 | 0 | 0 |  |  |  |  |  |  |  |
| COc1cc2c(cc1OC)[C@@]13CCN4CC5=CCO[C@H]6CC(=O)N2[C@H]1[C@H]6[C@H]5C[C@H]43 [Brucine] | 13 | Q4 | 6 | 0 | 1 |  |  |  |  |  |  |  |
| CCCC(=O)Nc1ncnc2c1ncn2[C@@H]1O[C@@H]2COP(=O)(O)O[C@H]2[C@H]1OC(=O)CCC [Bucladesine] | 24 | Q4 | 10 | 0 | 1 |  |  |  |  |  |  |  |
| CCCCOc1ccc(CC(=O)NO)cc1 [Bufexamac] | 17 | Q4 | -2 | 0 | 1 |  |  |  |  |  |  |  |
| COc1cc(OC)c(C(=O)CCCN2CCCC2)c(OC)c1 [Buflomedil, Buflomedil Hydrochloride] |  | Q4 |  | 1 | 1 |  |  |  |  |  | 13 | −37 |
| CCCCNc1cc(C(=O)O)cc(S(N)(=O)=O)c1Oc1ccccc1 [Bumetanide] | 18 | Q4 | -3 | 1 | 1 |  |  |  |  |  |  |  |
| CCCCN1CCCCC1C(=O)Nc1c(C)cccc1C (centres unmarked) [Bupivacaine] | 23 | Q4 | 12 | 0 | 1 |  |  |  |  |  |  |  |
| O=C(NCc1ccccc1)OCCO [Buramate] | 17 | Q4 | 9 | 0 | 1 |  |  |  |  |  |  |  |
| CCCCN(CCCC)CCCOC(=O)c1ccc(N)cc1 [Butacaine] | 3 | Q4 | -18 | 0 | 0 |  |  |  |  |  |  |  |
| CCCCOC(=O)c1ccc(N)cc1 [Butamben] | 14 | Q4 | -25 | 1 | 0 |  |  |  |  |  |  |  |
| CN(Cc1ccc(C(C)(C)C)cc1)Cc1cccc2ccccc12 [Butenafine] | -8 | Q4 | -4 | 0 | 1 |  |  |  |  |  |  |  |
| Clc1ccc(CCC(Cn2ccnc2)Sc2c(Cl)cccc2Cl)cc1 (centres unmarked) [Butoconazole] | 10 | Q4 | -51 | 0 | 0 |  |  |  |  |  |  |  |
| COc1ccc(O)c(C(C)(C)C)c1 [Butylated Hydroxyanisole] |  | Q4 |  | 0 | 1 |  |  |  |  |  | 26 | −17 |
| CCCCOC(=O)c1ccc(O)cc1 [Butylparaben] | 20 | Q4 | -16 | 0 | 1 |  |  |  |  |  |  |  |
| C=CCN1C[C@H](C(=O)N(CCCN(C)C)C(=O)NCC)C[C@@H]2c3cccc4[nH]cc(c34)C[C@H]21 [Cabergoline] | 33 | Q4 | 20 | 1 | 1 |  |  |  |  |  |  |  |
| C=C1CC[C@H](O)C/C1=C/C=C1\CCC[C@]2(C)[C@@H]([C@H](C)CCCC(C)(C)O)CC[C@@H]12 [Calcidiol] | 8 | Q4 | 14 | 0 | 1 |  |  |  |  |  |  |  |
| C=C1/C(=C\C=C2/CCC[C@]3(C)[C@@H]([C@H](C)/C=C/[C@@H](O)C4CC4)CC[C@@H]23)C[C@@H](O)C[C@@H]1O [Calcipotriol] | -8 | Q4 | 2 | 0 | 1 |  |  |  |  |  |  |  |
| C=C1/C(=C\C=C2/CCC[C@]3(C)[C@@H]([C@H](C)CCCC(C)(C)O)CC[C@@H]23)C[C@@H](O)C[C@@H]1O [Calcitriol] | 0 | Q4 | -46 | 1 | 0 |  |  |  |  |  |  |  |
| O=C([O-])C(O)[C@H](O)[C@@H](O)[C@H](O)[C@H](O)CO.O=C([O-])C(O)[C@H](O)[C@@H](O)[C@H](O)[C@H](O)CO.[Ca+2] (some centres unmarked) [Calcium Gluceptate] |  | Q4 |  | 0 | 1 |  |  |  |  |  | 8 | 8 |
| CCN(CC)CCNC(C(=O)OCCC(C)C)c1ccccc1 (centres unmarked) [Camylofine Dihydrochloride] | 15 | Q4 | -27 | 1 | 1 |  |  |  |  |  |  |  |
| CCOc1nc2cccc(C(=O)OC(C)OC(=O)OC3CCCCC3)c2n1Cc1ccc(-c2ccccc2-c2nn[nH]n2)cc1 (centres unmarked) [Candesartan Cilextil] |  | Q4 |  | 0 | 1 |  |  |  |  |  | 10 | −5 |
